Laboratory results reported in article PMC6327044, “A chemical biology screen identifies a vulnerability of neuroendocrine cancer cells to SQLE inhibition” (Nature Communications, 2019).

Columns and labels:
Assay in all cases: cells
Parameters in all cases: species or system panel of 482 human cancer cell lines; ATPLite luminescence growth inhibition after treatment, nine-point dilution curve, 482 cancer cell lines, 384-well
Settings in all cases: 72 h, recommended growth medium
MKN45_STOMACH = test system: MKN45_STOMACH
Experimental: (§1) Cells were seeded in recommended growth media in black 384-well tissue culture treated plates at 500 cells per well. Cells were equilibrated in assay plates via centrifugation and placed in incubators for 24 h before treatment. […] Treated assay plates were incubated with compounds for 72 h and subsequently were developed for endpoint analysis using ATPLite. Each compound was assessed using a nine-point dilution curve. Cells were defined as sensitive to a given compound based on GI75 < 2 μM with manual quality control of curve fit. GI75 is defined as a drug concentration that causes a 75% reduction in assay readout relative to dimethyl sulfoxide (DMSO)-treated controls. To identify novel cancer vulnerabilities, we screened a panel of 482 cell lines with a diverse set of metabolic inhibitors. […] Given that SCLC is thought to arise from neuroendocrine cells in the lung[9], we tested the NB-598 sensitivity in a panel of 42 SCLC cell lines. We calculated a quantitative metric of sensitivity for each cell line based on the area under the curve (AUC) of the mu/mu.max curve to more accurately capture the potency and extent of NB-598 effects. […] We categorized the SCLC cell lines as sensitive (5/42), moderate (11/42), and insensitive (26/42) (Fig. 1c and Supplementary Data 2) and focused all subsequent efforts on this indication. […] To further understand the patterns of sensitivity, we conducted RNA sequencing (RNA-Seq; Supplementary Data 3) and proteomic (Supplementary Data 4) characterization of the SCLC panel to identify unbiased expression signatures associated with enhanced NB-598 response (Supplementary Fig. 1 and Supplementary Fig. 2). Given the growing understanding that SCLC tumors can be further subdivided based on the status of lineage-defining transcription factors, ASLC1 and NEUROD1, we specifically investigated NB-598 response as the function of ASCL1 and NEUROD1 expression levels. […] To further dissect the NB-598 response within the ASCL1-high/NEUROD-low subset of 25 cell lines, we identified RNA-Seq and proteomics expression signatures associated with NB

BEN_LUNG = test system: BEN_LUNG
Experimental: as §1

NCIH841_LUNG = test system: NCIH841_LUNG
Experimental: as §1

TE4_OESOPHAGUS = test system: TE4_OESOPHAGUS
Experimental: as §1

JHH6_LIVER = test system: JHH6_LIVER
Experimental: as §1

NCIH1869_LUNG = test system: NCIH1869_LUNG
Experimental: as §1

SNU16_STOMACH = test system: SNU16_STOMACH
Experimental: as §1

NCIH1048_LUNG = test system: NCIH1048_LUNG
Experimental: as §1

SNU308_BILIARY_TRACT = test system: SNU308_BILIARY_TRACT
Experimental: as §1

TT_OESOPHAGUS = test system: TT_OESOPHAGUS
Experimental: as §1

HCC95_LUNG = test system: HCC95_LUNG
Experimental: as §1

NCIH810_LUNG = test system: NCIH810_LUNG
Experimental: as §1

NCIH2171_LUNG = test system: NCIH2171_LUNG
Experimental: as §1

AU565_BREAST = test system: AU565_BREAST
Experimental: as §1

[1] = test system: OCILY8_HAEMATOPOIETIC_AND_LYMPHOID_TISSUE
Experimental: as §1

SNU503_LARGE_INTESTINE = test system: SNU503_LARGE_INTESTINE
Experimental: as §1

NCIH1666_LUNG = test system: NCIH1666_LUNG
Experimental: as §1

`CCN(C/C=C/C#CC(C)(C)C)Cc1cccc(OCc2cc(-c3ccsc3)cs2)c1` [NB-598] gave a GI50 (MKN45_STOMACH) of 605 nM, a GI50 (BEN_LUNG) of 21400 nM and a GI50 (NCIH841_LUNG) of 13200 nM. The GI50 (TE4_OESOPHAGUS) was 19500 nM, the GI50 (JHH6_LIVER) was 8890 nM and the GI50 (NCIH1869_LUNG) was 15.2 nM. It also gave a GI50 (SNU16_STOMACH) of 27.3 nM, a GI50 (NCIH1048_LUNG) of 9060 nM and a GI50 (SNU308_BILIARY_TRACT) of 2920 nM. It also gave a GI50 (TT_OESOPHAGUS) of 296 nM, a GI50 (HCC95_LUNG) of 134 nM and a GI50 (NCIH810_LUNG) of 7.33 nM. It also gave a GI50 (NCIH2171_LUNG) of 2270 nM, a GI50 (AU565_BREAST) of 399000 nM and a GI50 [1] of 9190 nM. For the same compound, the GI50 (SNU503_LARGE_INTESTINE) was 598 nM and the GI50 (NCIH1666_LUNG) was 24.9 nM.
